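A five-concentration, 48-hour dose response in 96-well plates underlies each endpoint, interpolated linearly between surrounding concentrations. Here, GI50 denotes the concentration required for 50% inhibition of growth. TGI marks complete inhibition of growth.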
tested on: HCC-2998 colon; assay: NCI-60 cell line screen, 48 h

Row | SMILES | GI50 [µM] | TGI [µM]
1 | CCCCCCCCCCCCCCCCCCOc1ccccc1CC(=O)NCC[N+]1(C)CCOCC1 | 2.08 | 7.09
2 | S=C(Cc1ccc2c(c1)Sc1ccccc1O2)N1CCOCC1 |  | > 100
3 | C[n+]1cc2cc(O)c(O)cc2c2ccc3cc(O)c(O)cc3c21 |  | > 57.6
4 | COc1ccc(N=Nc2c(-c3c(OC)cc4occc4c3OC)[nH]c(=O)c(C#N)c2C)cc1 |  | > 100
5 | O=C(/C=C/c1ccc(Cl)cc1)Oc1ccc(C=C2CCC/C(=C\c3ccc(OC(=O)/C=C/c4ccc(Cl)cc4)cc3)C2=O)cc1 |  | > 100
6 | c1ccc2c(c1)SCCCS2 |  | > 100
7 | COc1ccc2c(c1)c1c(n2CCN2CCCCC2)-c2cccc(OC)c2CC1 |  | 36.4
8 | COc1ccc2nc(NC(=O)/C(C#N)=C/c3ccccc3)sc2c1 |  | > 100
9 | Cc1nc2ccc(Cl)cc2c(-n2ccnc2)c1CCn1ccnc1 |  | > 100
10 | Cc1c(C)n(-c2ccccc2)c2nc(S(C)=O)nc(S(C)=O)c12 (configuration not stated) |  | 30.3
11 | CC1(C)CC(=O)C2=C(C1)C(c1ccccc1Cl)C1C(=O)CC(C)(C)CC1(O)O2 (configuration not stated) |  | > 100
12 | CCc1c(O)cc(=O)oc1-c1ccc(OC)c(OC)c1 |  | > 100
13 | Cc1ccc2c(c1C)C(=O)C1(Cc3cc4c(cc3C1=O)CCC4)C2 (configuration not stated) |  | > 100
14 | CCCCI(O)OS(=O)(=O)c1ccc(C)cc1 |  | > 100
15 | O=C(CCc1cc(O)cc(O)c1)NCCc1cc(OCc2ccccc2)cc(OCc2ccccc2)c1 |  | 35
16 | Clc1cccc(-c2sc(-c3cccs3)cc2Cc2cccs2)c1 |  | > 10
17 | c1ccc(-c2c(-c3ccccc3)[n+](Cc3ccc4ccccc4c3)c(-c3ccc(-c4nc5ccccc5s4)cc3)n2Cc2ccc3ccccc3c2)cc1 | 0.244 | 1.01

Row | SMILES | GI50 [µM] | TGI [µM]
18 | O=c1c2c3c(sc2[nH]c(=S)n1-c1ccccc1)CCCc1ccc([N+](=O)[O-])cc1-3 |  | 77.3
19 | CC(C)C(Br)CCC1=CCC(Br)(Br)C1 (configuration not stated) |  | 28.1
20 | CN(C)C(=O)C(F)(F)C(c1ccc(F)cc1)C1C(=O)N(C)C(=O)N(C)C1=O (configuration not stated) |  | > 100
21 | Cc1c2cccc-2c2cc(O)c3ccccc3c2n1-c1ccc(N(C)C)cc1 |  | 35.1
22 | Cc1c(N2CCOCC2)nc2ccc(Cl)cc2c1-c1ccccc1 |  | > 100
23 | O=c1[nH]c(NCc2ccncc2)nc2nc[nH]c12 |  | > 100
24 | Cc1ccc(-c2cc(-c3ccco3)c(C#N)c(=S)[nH]2)cc1 |  | > 100
25 | Cc1cc([N+](=O)[O-])c(C)c2c1[nH]c1ccc(Cl)cc12 |  | > 100
26 | COCOc1ccc(C(=O)Oc2cccc3c2OC(C)(C)O3)c(OCOC)c1 |  | > 100
27 | COC(=O)c1ccccc1C1CN=NC12Cc1c(ccc(C)c1C)C2=O (configuration not stated) |  | > 100
28 | COC(=O)/C=C(\C)CC/C=C(\C)CCC1OC1(C)C (configuration not stated) |  | 22.8
29 | COc1ccc(CNc2cnc3ccc(N)cc3n2)cc1 |  | > 100
30 | CCOC(=O)C1C(c2ccc(Cl)cc2Cl)NC(c2ccc(C)cc2)C(C(=O)OC)S1(=O)=O (configuration not stated) |  | > 100
31 | COc1cccc(C2c3cc4c(cc3OC(O)C2C)OCO4)c1OC (configuration not stated) |  | 46
32 | O=C1C=CC2(O[C@H](c3ccccc3)[C@@H](c3ccccc3)O2)[C@H](Sc2ccccc2O)C1 |  | 1.63
33 | CN(/N=C1\C(=O)Nc2ccccc21)c1ccccc1 |  | > 100

tested on: HCT-15 colon; assay: NCI-60 cell line screen, 48 h

Row | SMILES | TGI [µM] | GI50 [µM]
34 | O=c1c(F)cn2c(=O)n1CCCCCCCn1c(=O)c(F)cn(c1=O)CCCCCCC2 | > 100 | 
35 | Cc1nnc2n(c1=O)CCCN2C | > 100 | 
36 | O=C(ON=C1c2ccccc2C(Br)C(Br)c2ccccc21)c1ccccc1 (configuration not stated) | 42.5 | 
37 | Nc1ncnc2c1nnn2C1C=CC(CP(=O)(O)O)C1 (configuration not stated) | > 100 | 
38 | CN(C)CCn1c(=O)c2ccc(NCCCN(C)CCCNc3ccc4c(=O)n(CCN(C)C)c(=O)n5c6ccc(O)cc6c(=O)c3c45)c3c(=O)c4cc(O)ccc4n(c1=O)c23 | 3.41 | 
39 | CC(=O)c1ccc(Oc2c3ccccc3nc3ccccc23)cc1 | 17.5 | 
40 | Cn1c2ccccc2n2c3ncccc3c(=O)c(C#N)c12 | > 53.8 | 
41 | CCCCCCCCCCCCCCCCCCOc1ccccc1CC(=O)NCC[N+]1(C)CCOCC1 | 66.5 | 17.1
42 | S=C(Cc1ccc2c(c1)Sc1ccccc1O2)N1CCOCC1 | > 100 | 
43 | C[n+]1cc2cc(O)c(O)cc2c2ccc3cc(O)c(O)cc3c21 | > 34.2 | 
44 | COc1ccc(N=Nc2c(-c3c(OC)cc4occc4c3OC)[nH]c(=O)c(C#N)c2C)cc1 | > 100 | 
45 | O=C(/C=C/c1ccc(Cl)cc1)Oc1ccc(C=C2CCC/C(=C\c3ccc(OC(=O)/C=C/c4ccc(Cl)cc4)cc3)C2=O)cc1 | > 100 | 
46 | c1ccc2c(c1)SCCCS2 | > 100 | 
47 | COc1ccc2c(c1)c1c(n2CCN2CCCCC2)-c2cccc(OC)c2CC1 | 70.1 | 
48 | COc1ccc2nc(NC(=O)/C(C#N)=C/c3ccccc3)sc2c1 | > 100 | 
49 | Cc1nc2ccc(Cl)cc2c(-n2ccnc2)c1CCn1ccnc1 | > 100 | 
50 | Cc1c(C)n(-c2ccccc2)c2nc(S(C)=O)nc(S(C)=O)c12 (configuration not stated) | 17.8 | 
51 | CC1(C)CC(=O)C2=C(C1)C(c1ccccc1Cl)C1C(=O)CC(C)(C)CC1(O)O2 (configuration not stated) | > 100 | 
52 | Cn1nc(-c2ccc(S(=O)(=O)/N=C(\NN)Nc3ccc(Cl)cc3)s2)cc1C(F)(F)F | 47.5 | 
53 | CCc1c(O)cc(=O)oc1-c1ccc(OC)c(OC)c1 | > 100 | 
54 | Cc1ccc2c(c1C)C(=O)C1(Cc3cc4c(cc3C1=O)CCC4)C2 (configuration not stated) | > 100 | 
55 | CCCCI(O)OS(=O)(=O)c1ccc(C)cc1 | > 100 | 
56 | C[C@@H]1CC[C@@]2(C)C(C(=O)O)=CCCC2[C@@]1(C)CC(=O)c1ccoc1 (some centres not stated) | > 25 | 

Row | SMILES | TGI [µM] | GI50 [µM]
57 | O=C(CCc1cc(O)cc(O)c1)NCCc1cc(OCc2ccccc2)cc(OCc2ccccc2)c1 | 29.8 | 
58 | Clc1cccc(-c2sc(-c3cccs3)cc2Cc2cccs2)c1 | > 10 | 
59 | c1ccc(-c2c(-c3ccccc3)[n+](Cc3ccc4ccccc4c3)c(-c3ccc(-c4nc5ccccc5s4)cc3)n2Cc2ccc3ccccc3c2)cc1 | 1.13 | 0.335
60 | O=c1c2c3c(sc2[nH]c(=S)n1-c1ccccc1)CCCc1ccc([N+](=O)[O-])cc1-3 | 72.7 | 
61 | CC1CC(N2CCOCC2)=Nc2ccccc2N1C (configuration not stated) | > 100 | 
62 | CN(C)C(=O)C(F)(F)C(c1ccc(F)cc1)C1C(=O)N(C)C(=O)N(C)C1=O (configuration not stated) | > 100 | 
63 | Cc1c2cccc-2c2cc(O)c3ccccc3c2n1-c1ccc(N(C)C)cc1 | 20 | 
64 | Cc1c(N2CCOCC2)nc2ccc(Cl)cc2c1-c1ccccc1 | > 100 | 
65 | O=c1[nH]c(NCc2ccncc2)nc2nc[nH]c12 | > 100 | 
66 | Cc1ccc(-c2cc(-c3ccco3)c(C#N)c(=S)[nH]2)cc1 | > 100 | 
67 | Cc1cc([N+](=O)[O-])c(C)c2c1[nH]c1ccc(Cl)cc12 | > 100 | 
68 | COc1ccc(C)cc1N1C(=O)C2ON(Cc3ccc(CC(N)=O)cc3)C(c3c4ccccc4c(Cl)c4ccccc34)C2C1=O (configuration not stated) | 73.3 | 
69 | COc1ccc(C2Oc3ccc(Cl)cc3C=C2[N+](=O)[O-])cc1 (configuration not stated) | > 100 | 
70 | NS(=O)(=O)c1nnc(NC(=O)N(c2ccccc2)c2ccccc2)s1 | > 100 | 
71 | COCOc1ccc(C(=O)Oc2cccc3c2OC(C)(C)O3)c(OCOC)c1 | > 100 | 
72 | COC(=O)c1ccccc1C1CN=NC12Cc1c(ccc(C)c1C)C2=O (configuration not stated) | > 100 | 
73 | COC(=O)/C=C(\C)CC/C=C(\C)CCC1OC1(C)C (configuration not stated) | 21.9 | 
74 | COc1ccc(CNc2cnc3ccc(N)cc3n2)cc1 | > 100 | 
75 | CCOC(=O)C1C(c2ccc(Cl)cc2Cl)NC(c2ccc(C)cc2)C(C(=O)OC)S1(=O)=O (configuration not stated) | > 100 | 
76 | COc1cccc(C2c3cc4c(cc3OC(O)C2C)OCO4)c1OC (configuration not stated) | > 100 | 
77 | CCOC(=O)/C=C/c1nc(C#N)c(N)o1 | > 100 | 
78 | O=C1C=CC2(O[C@H](c3ccccc3)[C@@H](c3ccccc3)O2)[C@H](Sc2ccccc2O)C1 | 0.507 | 
79 | CN(/N=C1\C(=O)Nc2ccccc21)c1ccccc1 | > 100 | 

tested on: OVCAR-4 ovarian; assay: NCI-60 cell line screen, 48 h

Row | SMILES | TGI [µM] | GI50 [µM]
80 | COc1ccc2ccc3oc(=O)c(C)cc3c2c1 | > 100 | 
81 | O=c1c(F)cn2c(=O)n1CCCCCCCn1c(=O)c(F)cn(c1=O)CCCCCCC2 | 98.4 | 
82 | Cc1nnc2n(c1=O)CCCN2C | > 100 | 
83 | O=C(ON=C1c2ccccc2C(Br)C(Br)c2ccccc21)c1ccccc1 (configuration not stated) | 30 | 
84 | Nc1ncnc2c1nnn2C1C=CC(CP(=O)(O)O)C1 (configuration not stated) | > 100 | 
85 | CN(C)CCn1c(=O)c2ccc(NCCCN(C)CCCNc3ccc4c(=O)n(CCN(C)C)c(=O)n5c6ccc(O)cc6c(=O)c3c45)c3c(=O)c4cc(O)ccc4n(c1=O)c23 | 0.177 | 
86 | CC(=O)c1ccc(Oc2c3ccccc3nc3ccccc23)cc1 | 18.6 | 
87 | Cn1c2ccccc2n2c3ncccc3c(=O)c(C#N)c12 | > 100 | 
88 | CCCCCCCCCCCCCCCCCCOc1ccccc1CC(=O)NCC[N+]1(C)CCOCC1 | 23.3 | 6.42
89 | S=C(Cc1ccc2c(c1)Sc1ccccc1O2)N1CCOCC1 | > 100 | 
90 | C[n+]1cc2cc(O)c(O)cc2c2ccc3cc(O)c(O)cc3c21 | > 100 | 
91 | COc1ccc(N=Nc2c(-c3c(OC)cc4occc4c3OC)[nH]c(=O)c(C#N)c2C)cc1 | > 100 | 
92 | O=C(/C=C/c1ccc(Cl)cc1)Oc1ccc(C=C2CCC/C(=C\c3ccc(OC(=O)/C=C/c4ccc(Cl)cc4)cc3)C2=O)cc1 | > 100 | 
93 | c1ccc2c(c1)SCCCS2 | > 100 | 
94 | COc1ccc2c(c1)c1c(n2CCN2CCCCC2)-c2cccc(OC)c2CC1 | > 100 | 
95 | COc1ccc2nc(NC(=O)/C(C#N)=C/c3ccccc3)sc2c1 | > 100 | 
96 | Cc1nc2ccc(Cl)cc2c(-n2ccnc2)c1CCn1ccnc1 | > 100 | 
97 | Cc1c(C)n(-c2ccccc2)c2nc(S(C)=O)nc(S(C)=O)c12 (configuration not stated) | 17.4 | 

— PubChem BioAssay (NCI)
